Source: patent US10213433B2 (AbbVie Inc., priority 2010, dated 2019)

The compounds below were run against Bcl-2 protein (Homo sapiens (Human), UniProt P10415) (assay: Bcl-2 binding TR-FRET (Time-Resolved Fluorescence-Resonance-Energy-Transfer) assay). Conditions: inhibition constant for binding to Bcl-2 protein.
Chain of Bcl-2 protein (P10415 whole entry): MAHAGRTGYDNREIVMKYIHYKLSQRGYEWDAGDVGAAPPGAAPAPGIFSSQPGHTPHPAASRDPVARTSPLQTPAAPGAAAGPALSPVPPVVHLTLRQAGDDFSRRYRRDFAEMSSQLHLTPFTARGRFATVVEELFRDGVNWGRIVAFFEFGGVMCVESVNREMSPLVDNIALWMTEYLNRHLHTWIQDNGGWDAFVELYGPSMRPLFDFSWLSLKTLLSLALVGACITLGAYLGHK
Text: The smaller the Ki value, the greater is the binding affinity.
Work on CC1(C)CCC(CN2CCN(c3ccc(C(=O)NS(=O)(=O)c4ccc(NCC5CN(C(CF)CF)CCO5)c([N+](=O)[O-])c4)c(Oc4cnc5[nH]ccc5c4)c3)CC2)=C(c2ccc(Cl)cc2)C1 (stereo not drawn) [Compound 252, 4-(4-{[2-(4-chlorophenyl)-4,4-dimethylcyclohex-1-en-1-yl]methyl}piperazin-1-yl)-N-{[4-({[4-(1,3-difluoropropan-2-yl)morpholin-2-yl]methyl}amino)-3-nitrophenyl]sulfonyl}-2-(1H-pyrrolo[2,3-b]pyridin-5-yloxy)benzamide] yielded a Ki of less than 0.01 nM. In the case of COCCOCCN1CC[C@@H](Nc2ccc(S(=O)(=O)NC(=O)c3ccc(N4CCN(CC5=C(c6ccc(Cl)cc6)CC(C)(C)CC5)CC4)cc3Oc3cnc4[nH]ccc4c3)cc2[N+](=O)[O-])C1 [Compound 254, 4-(4-{[2-(4-chlorophenyl)-4,4-dimethylcyclohex-1-en-1-yl]methyl}piperazin-1-yl)-N-{[4-({(3R)-1-[2-(2-methoxyethoxyl)ethyl]pyrrolidin-3-yl}amino)-3-nitrophenyl]sulfonyl}-2-(1H-pyrrolo[2,3-b]pyridin-5-yloxy)benzamide], the Ki is reported as less than 0.01 nM. CN(C)CC(=O)N1CC[C@@H](Nc2ccc(S(=O)(=O)NC(=O)c3ccc(N4CCN(CC5=C(c6ccc(Cl)cc6)CC(C)(C)CC5)CC4)cc3Oc3cnc4[nH]ccc4c3)cc2[N+](=O)[O-])C1 [Compound 255, 4-(4-{[2-(4-chlorophenyl)-4,4-dimethylcyclohex-1-en-1-yl]methyl}piperazin-1-yl)-N-[(4-{[(3R)-1-(N,N-dimethylglycyl)pyrrolidin-3-yl]amino}-3-nitrophenyl)sulfonyl]-2-(1H-pyrrolo[2,3-b]pyridin-5-yloxy)benzamide] was tested, and the Ki was less than 0.01 nM. Compound CC1(C)CCC(CN2CCN(c3ccc(C(=O)NS(=O)(=O)c4ccc(NC5CN(C6COC6)C5)c([N+](=O)[O-])c4)c(Oc4cnc5[nH]ccc5c4)c3)CC2)=C(c2ccc(Cl)cc2)C1 [Compound 256, 4-(4-{[2-(4-chlorophenyl)-4,4-dimethylcyclohex-1-en-1-yl]methyl}piperazin-1-yl)-N-[(3-nitro-4-{[1-(oxetan-3-yl)azetidin-3-yl]amino}phenyl)sulfonyl]-2-(1H-pyrrolo[2,3-b]pyridin-5-yloxy)benzamide] has a Ki of less than 0.01 nM. CN(C)CC(=O)N1CCO[C@H](CNc2ccc(S(=O)(=O)NC(=O)c3ccc(N4CCN(CC5=C(c6ccc(Cl)cc6)CC(C)(C)CC5)CC4)cc3Oc3cnc4[nH]ccc4c3)cc2[N+](=O)[O-])C1 [Compound 258, 4-(4-{[2-(4-chlorophenyl)-4,4-dimethylcyclohex-1-en-1-yl]methyl}piperazin-1-yl)-N-{[4-({[(2R)-4-(N,N-dimethylglycyl)morpholin-2-yl]methyl}amino)-3-nitrophenyl]sulfonyl}-2-(1H-pyrrolo[2,3-b]pyridin-5-yloxy)benzamide] showed a Ki of less than 0.01 nM. In the case of CN(C)CC(=O)N1CCO[C@@H](CNc2ccc(S(=O)(=O)NC(=O)c3ccc(N4CCN(CC5=C(c6ccc(Cl)cc6)CC(C)(C)CC5)CC4)cc3Oc3cnc4[nH]ccc4c3)cc2[N+](=O)[O-])C1 [Compound 259, 4-(4-{[2-(4-chlorophenyl)-4,4-dimethylcyclohex-1-en-1-yl]methyl}piperazin-1-yl)-N-{[4-({[(2S)-4-(N,N-dimethylglycyl)morpholin-2-yl]methyl}amino)-3-nitrophenyl]sulfonyl}-2-(1H-pyrrolo[2,3-b]pyridin-5-yloxy)benzamide], the Ki is reported as less than 0.01 nM. CC1(C)CCC(CN2CCN(c3ccc(C(=O)NS(=O)(=O)c4ccc(N[C@@H]5CCN(CC#N)C5)c([N+](=O)[O-])c4)c(Oc4cnc5[nH]ccc5c4)c3)CC2)=C(c2ccc(Cl)cc2)C1 [Compound 262, 4-(4-{[2-(4-chlorophenyl)-4,4-dimethylcyclohex-1-en-1-yl]methyl}piperazin-1-yl)-N-[(4-{[(3R)-1-(cyanomethyl)pyrrolidin-3-yl]amino}-3-nitrophenyl)sulfonyl]-2-(1H-pyrrolo[2,3-b]pyridin-5-yloxy)benzamide] gave a Ki of less than 0.01 nM. O=C(NS(=O)(=O)c1ccc(NCC2CCOCC2)c([N+](=O)[O-])c1)c1ccc(N2CCN(CC3=C(c4ccc(Cl)cc4)CCC4(CCN(C(CF)CF)CC4)C3)CC2)cc1Oc1cnc2[nH]ccc2c1 [Compound 265, 4-(4-{[9-(4-chlorophenyl)-3-(1,3-difluoropropan-2-yl)-3-azaspiro[5.5]undec-8-en-8-yl]methyl}piperazin-1-yl)-N-({3-nitro-4-[(tetrahydro-2H-pyran-4-ylmethyl)amino]phenyl}sulfonyl)-2-(1H-pyrrolo[2,3-b]pyridin-5-yloxy)benzamide] gave a Ki of less than 0.01 nM. CC(C)N1CCC2(CCC(c3ccc(Cl)cc3)=C(CN3CCN(c4ccc(C(=O)NS(=O)(=O)c5ccc(NCC6CCOCC6)c([N+](=O)[O-])c5)c(Oc5cnc6[nH]ccc6c5)c4)CC3)C2)CC1 [Compound 266, 4-(4-{[9-(4-chlorophenyl)-3-isopropyl-3-azaspiro[5.5]undec-8-en-8-yl]methyl}piperazin-1-yl)-N-({3-nitro-4-[(tetrahydro-2H-pyran-4-ylmethyl)amino]phenyl}sulfonyl)-2-(1H-pyrrolo[2,3-b]pyridin-5-yloxy)benzamide] was tested, and the Ki was less than 0.01 nM. For CC(C)N1CCC2(CCC(c3ccc(Cl)cc3)=C(CN3CCN(c4ccc(C(=O)NS(=O)(=O)c5cnc(OCC6CCOCC6)c(Cl)c5)c(Oc5cnc6[nH]ccc6c5)c4)CC3)C2)CC1 [Compound 268, 4-(4-{[9-(4-chlorophenyl)-3-isopropyl-3-azaspiro[5.5]undec-8-en-8-yl]methyl}piperazin-1-yl)-N-{[5-chloro-6-(tetrahydro-2H-pyran-4-ylmethoxy)pyridin-3-yl]sulfonyl}-2-(1H-pyrrolo[2,3-b]pyridin-5-yloxy)benzamide], the Ki was less than 0.01 nM. Compound CN(C)CC(=O)N1CCC(F)(COc2ncc(S(=O)(=O)NC(=O)c3ccc(N4CCN(CC5=C(c6ccc(Cl)cc6)CC(C)(C)CC5)CC4)cc3Oc3cnc4[nH]ccc4c3)cc2Cl)CC1 [Compound 270, N-[(5-chloro-6-{[1-(N,N-dimethylglycyl)-4-fluoropiperidin-4-yl]methoxy}pyridin-3-yl)sulfonyl]-4-(4-{[2-(4-chlorophenyl)-4,4-dimethylcyclohex-1-en-1-yl]methyl}piperazin-1-yl)-2-(1H-pyrrolo[2,3-b]pyridin-5-yloxy)benzamide] has a Ki of less than 0.01 nM. With CC1(C)CCC(CN2CCN(c3ccc(C(=O)NS(=O)(=O)c4ccc(OCCOC5CCOC5)c([N+](=O)[O-])c4)c(Oc4cnc5[nH]ccc5c4)c3)CC2)=C(c2ccc(Cl)cc2)C1 (stereo not drawn) [Compound 275, 4-(4-{[2-(4-chlorophenyl)-4,4-dimethylcyclohex-1-en-1-yl]methyl}piperazin-1-yl)-N-({3-nitro-4-[2-(tetrahydrofuran-3-yloxy)ethoxy]phenyl}sulfonyl)-2-(1H-pyrrolo[2,3-b]pyridin-5-yloxy)benzamide] the Ki was less than 0.01 nM. In the case of CC1(C)CCC(CN2CCN(c3ccc(C(=O)NS(=O)(=O)c4cnc(OCC5(F)CCN(C(CF)CF)CC5)c(Cl)c4)c(Oc4cnc5[nH]ccc5c4)c3)CC2)=C(c2ccc(Cl)cc2)C1 [Compound 282, N-[(5-chloro-6-{[1-(1,3-difluoropropan-2-yl)-4-fluoropiperidin-4-yl]methoxy}pyridin-3-yl)sulfonyl]-4-(4-{[2-(4-chlorophenyl)-4,4-dimethylcyclohex-1-en-1-yl]methyl}piperazin-1-yl)-2-(1H-pyrrolo[2,3-b]pyridin-5-yloxy)benzamide], the Ki is reported as less than 0.01 nM. With CN1CCC(F)(COc2ccc(S(=O)(=O)NC(=O)c3ccc(N4CCN(CC5=C(c6ccc(Cl)cc6)CC(C)(C)CC5)CC4)cc3Oc3cnc4[nH]ccc4c3)cc2Cl)CC1 [Compound 283, N-({3-chloro-4-[(4-fluoro-1-methylpiperidin-4-yl)methoxy]phenyl}sulfonyl)-4-(4-{[2-(4-chlorophenyl)-4,4-dimethylcyclohex-1-en-1-yl]methyl}piperazin-1-yl)-2-(1H-pyrrolo[2,3-b]pyridin-5-yloxy)benzamide] the Ki was less than 0.01 nM. Work on CC1(C)CCC(CN2CCN(c3ccc(C(=O)NS(=O)(=O)c4cnc(OCC5(F)CCN(CC(F)F)CC5)c(Cl)c4)c(Oc4cnc5[nH]ccc5c4)c3)CC2)=C(c2ccc(Cl)cc2)C1 [Compound 285, N-[(5-chloro-6-{[1-(2,2-difluoroethyl)-4-fluoropiperidin-4-yl]methoxy}pyridin-3-yl)sulfonyl]-4-(4-{[2-(4-chlorophenyl)-4,4-dimethylcyclohex-1-en-1-yl]methyl}piperazin-1-yl)-2-(1H-pyrrolo[2,3-b]pyridin-5-yloxy)benzamide] yielded a Ki of less than 0.01 nM. CC1CN(c2ccc(C(=O)NS(=O)(=O)c3ccc(NCC4CCOCC4)c([N+](=O)[O-])c3)c(Oc3cnc4[nH]ccc4c3)c2)CCN1CC1=C(c2ccc(Cl)cc2)CC(C)(C)CC1 (stereo not drawn) [Compound 290, 4-(4-{[2-(4-chlorophenyl)-4,4-dimethylcyclohex-1-en-1-yl]methyl}-3-methylpiperazin-1-yl)-N-({3-nitro-4-[(tetrahydro-2H-pyran-4-ylmethyl)amino]phenyl}sulfonyl)-2-(1H-pyrrolo[2,3-b]pyridin-5-yloxy)benzamide] was tested, and the Ki was less than 0.01 nM. Work on CC1(C)CCC(CN2CCN(c3ccc(C(=O)NS(=O)(=O)c4ccc(NCCCNC5CC5)c([N+](=O)[O-])c4)c(Oc4cnc5[nH]ccc5c4)c3)CC2)=C(c2ccc(Cl)cc2)C1 [Compound 291, 4-(4-{[2-(4-chlorophenyl)-4,4-dimethylcyclohex-1-en-1-yl]methyl}piperazin-1-yl)-N-[(4-{[3-(cyclopropylamino)propyl]amino}-3-nitrophenyl)sulfonyl]-2-(1H-pyrrolo[2,3-b]pyridin-5-yloxy)benzamide] yielded a Ki of less than 0.01 nM. CN(C)CC(=O)N1CCC(COc2ccc(S(=O)(=O)NC(=O)c3ccc(N4CCN(CC5=C(c6ccc(Cl)cc6)CC(C)(C)CC5)CC4)cc3Oc3cnc4[nH]ccc4c3)cc2Cl)CC1 [Compound 295, N-[(3-chloro-4-{[1-(N,N-dimethylglycyl)piperidin-4-yl]methoxy}phenyl)sulfonyl]-4-(4-{[2-(4-chlorophenyl)-4,4-dimethylcyclohex-1-en-1-yl]methyl}piperazin-1-yl)-2-(1H-pyrrolo[2,3-b]pyridin-5-yloxy)benzamide] showed a Ki of less than 0.01 nM.
